Measured values published in patent publication US20140228314A1, “METHOD FOR PREPARATION OF CHITOSAN OLiGOSACCHARIDES COMPOSITION AND MIXTURE OF CHITOSAN OLiGOSACCHARIDES PREPARED THEREFROM” (KUNPOONG BIO CO., LTD, priority 2013, published 2014).

Test system: SD rats
Experiment: Inhibition of postprandial blood glucose rise per saccharide (sucrose load)
Type: in vivo, rat
Details: 100 mg/kg oral with 2 g/kg sucrose, control 207.8
Experimental: To SD rats, 100 mg/kg (based on body weight) of each of standard substances from monosaccharide to tetra-saccharide and 2 g/kg (based on body weight) of sucrose were orally administered by 1 ml/rat using an oral administration sonde. At 30 minutes, 60 minutes and 120 minutes after the oral administration, blood was collected from the tail vein of each SD rat and a change in blood glucose concentration in venous blood was measured using a blood glucose meter (CareSens II).

Point of comparison: N[C@H]1[C@H](O[C@H]2[C@H](O)[C@@H](N)C(O)O[C@@H]2CO)O[C@H](CO)[C@@H](O)[C@@H]1O (stereo partly drawn) [disaccharide], “blood glucose at 30 minutes after the meal” value 177.6 mg/dL. Against it:
- N[C@H]1C(O)O[C@H](CO)[C@@H](O)[C@@H]1O (stereo partly drawn) [monosaccharide] — higher, 210.7 mg/dL
- N[C@H]1[C@H](O[C@H]2[C@H](O)[C@@H](N)[C@H](O[C@H]3[C@H](O)[C@@H](N)C(O)O[C@@H]3CO)O[C@@H]2CO)O[C@H](CO)[C@@H](O)[C@@H]1O (stereo partly drawn) [trisaccharide] — higher, 179.4 mg/dL
